# Experimental data from ChEMBL document CHEMBL1944562, “Design, synthesis of some new (2-aminothiazol-4-yl)methylester derivatives as possible antimicrobial and antitubercular agents” (2012).
# Tested on: Mycobacterium tuberculosis
# Assay: Antitubercular activity against Multidrug-resistant Mycobacterium tuberculosis after 7 days by resazurin assay
# Type: functional
# Conditions: 168 h
row,SMILES,MIC
1,Nc1nc(COC(=O)C2(c3ccc(Cl)cc3)CC2)cs1,> 50 µg/mL
2,Nc1nc(COC(=O)Cc2cccc(C(F)(F)F)c2)cs1,6.25 µg/mL
3,Nc1nc(COC(=O)Cc2ccccc2OC(F)(F)F)cs1,> 50 µg/mL
4,Nc1nc(COC(=O)c2cc(F)cc(C(F)(F)F)c2)cs1,> 50 µg/mL
5,N#CCCc1cccc(C(=O)OCc2csc(N)n2)c1,6.25 µg/mL
6,N#Cc1ccccc1C(=O)OCc1csc(N)n1,> 50 µg/mL
7,Nc1nc(COC(=O)c2cccs2)cs1,> 50 µg/mL
8,Nc1nc(COC(=O)c2cccc([N+](=O)[O-])c2Cl)cs1,6.25 µg/mL
9,Nc1nc(COC(=O)c2c(F)cccc2Cl)cs1,6.25 µg/mL
10,Nc1nc(COC(=O)c2c(F)cc(F)cc2F)cs1,25 µg/mL
11,Nc1nc(COC(=O)c2ccc3ccccc3c2)cs1,> 50 µg/mL
12,Nc1nc(COC(=O)c2ccc([N+](=O)[O-])cc2)cs1,1.25 µg/mL
13,Nc1nc(COC(=O)c2c(Cl)cc(Cl)cc2Cl)cs1,> 50 µg/mL
14,N#Cc1cccc(C(=O)OCc2csc(N)n2)n1,> 50 µg/mL
15,Nc1nc(COC(=O)c2ccc(Br)cc2)cs1,2.5 µg/mL
16,Nc1nc(COC(=O)c2ccccc2[N+](=O)[O-])cs1,12.5 µg/mL
17,NNC(=O)c1ccncc1 [ISONIAZID],12.5 µg/mL
18,CO[C@H]1/C=C/O[C@@]2(C)Oc3c(C)c(O)c4c(O)c(c(/C=N/N5CCN(C)CC5)c(O)c4c3C2=O)NC(=O)/C(C)=C\C=C\[C@H](C)[C@H](O)[C@@H](C)[C@@H](O)[C@@H](C)[C@H](OC(C)=O)[C@@H]1C [RIFAMPIN],25 µg/mL
